# Laboratory results from patent US11274090B2, “P300/CBP HAT inhibitors” (Constellation Pharmaceuticals, Inc., priority 2018, dated 2022).
# Molecular target: p300 HAT domain (residues 1287-1666) (Homo sapiens (Human), UniProt Q09472)
# Assay: p300 HAT SPA assay (scintillation proximity assay, acetylation of biotinylated H3(1-21) peptide)
# Type: biochemical
# Details: average of at least 2 replicate titrations
# Procedure, shortened: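 Purified p300 HAT domain reaction transferred to streptavidin plates to capture biotinylated H3(1-21) peptide, incubated 1.5 hr at RT, and read by scintillation proximity. IC50 values derived from concentration-response data.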
# Sequence of p300 HAT domain (residues 1287-1666) (Q09472 1287-1666): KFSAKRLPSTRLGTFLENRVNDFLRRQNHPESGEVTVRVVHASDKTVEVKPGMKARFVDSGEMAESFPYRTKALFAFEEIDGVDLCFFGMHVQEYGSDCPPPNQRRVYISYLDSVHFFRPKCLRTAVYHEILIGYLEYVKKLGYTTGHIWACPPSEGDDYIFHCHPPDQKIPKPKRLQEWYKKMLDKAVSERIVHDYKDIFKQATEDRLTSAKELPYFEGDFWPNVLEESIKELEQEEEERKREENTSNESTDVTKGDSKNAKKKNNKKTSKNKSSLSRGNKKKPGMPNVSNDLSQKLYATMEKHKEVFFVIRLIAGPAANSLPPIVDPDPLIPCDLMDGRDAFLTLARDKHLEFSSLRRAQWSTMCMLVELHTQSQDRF
row,IC50,Compound
1,1010 nM,"Cn1cc(-c2ccc(NC(=O)C(NCCc3ccc(C#N)cc3C(F)(F)F)c3ccccc3)nc2)cn1 (single isomer, unassigned) [95 Isomer 2]"
2,67.4 nM,"N#Cc1ccc(CCNC(C(=O)Nc2ccc(N3CCC4(COC4)C3)cn2)c2ccccc2)cc1 (single isomer, unassigned) [96 Isomer 1]"
3,> 2000 nM,"N#Cc1ccc(CCNC(C(=O)Nc2ccc(N3CCC4(COC4)C3)cn2)c2ccccc2)cc1 (single isomer, unassigned) [96 Isomer 2]"
4,191 nM,"Cn1cc(-c2ccc(NC(=O)C(NCC3(c4ccc(Cl)cc4)CC3)c3ccccc3)nc2)cn1 (single isomer, unassigned) [97 Isomer 1]"
5,> 2000 nM,"Cn1cc(-c2ccc(NC(=O)C(NCC3(c4ccc(Cl)cc4)CC3)c3ccccc3)nc2)cn1 (single isomer, unassigned) [97 Isomer 2]"
6,571 nM,"CC(CNC(C(=O)Nc1ccc(-c2cnn(C)n2)cn1)c1ccccc1)c1ccc(C#N)cc1 (single isomer, unassigned) [98 Isomer 1]"
7,> 2000 nM,"CC(CNC(C(=O)Nc1ccc(-c2cnn(C)n2)cn1)c1ccccc1)c1ccc(C#N)cc1 (single isomer, unassigned) [98 Isomer 3]"
8,1460 nM,"CC(CNC(C(=O)Nc1ccc(-c2cnn(C)n2)cn1)c1ccccc1)c1ccc(C#N)cc1 (single isomer, unassigned) [98 Isomer 4]"
9,869 nM,"CC(CNC(C(=O)Nc1ccc(-c2cnn(C)n2)cn1)c1ccccc1)c1ccc(C(F)(F)F)cc1 (single isomer, unassigned) [99 Isomer 1]"
10,1020 nM,"CC(CNC(C(=O)Nc1ccc(-c2cnn(C)n2)cn1)c1ccccc1)c1ccc(C(F)(F)F)cc1 (single isomer, unassigned) [99 Isomer 2]"
11,> 2000 nM,"CC(CNC(C(=O)Nc1ccc(-c2cnn(C)n2)cn1)c1ccccc1)c1ccc(C(F)(F)F)cc1 (single isomer, unassigned) [99 Isomer 3]"
12,28.3 nM,"CC(CNC(C(=O)Nc1ccc(-c2cnn(C)n2)cn1)c1ccccc1)c1ccc(C(F)(F)F)cc1 (single isomer, unassigned) [99 Isomer 4]"
13,668 nM,"CC(CNC(C(=O)Nc1ccc(-c2cn(C)nn2)cn1)c1ccccc1)c1ccc(C#N)cc1 (single isomer, unassigned) [100 Isomer 1]"
14,> 2000 nM,"CC(CNC(C(=O)Nc1ccc(-c2cn(C)nn2)cn1)c1ccccc1)c1ccc(C#N)cc1 (single isomer, unassigned) [100 Isomer 3]"
15,> 2000 nM,"CC(CNC(C(=O)Nc1ccc(-c2cn(C)nn2)cn1)c1ccccc1)c1ccc(C#N)cc1 (single isomer, unassigned) [100 Isomer 4]"
16,245 nM,"CC(CNC(C(=O)Nc1ccc(N2CCN(C)C(=O)C2)cn1)c1ccccc1)c1ccc(C#N)cc1 (single isomer, unassigned) [101 Isomer 2]"
17,355 nM,"CC(CNC(C(=O)Nc1ccc(N2CCN(C)C(=O)C2)cn1)c1ccccc1)c1ccc(C#N)cc1 (single isomer, unassigned) [101 Isomer 3]"
18,> 2000 nM,"CC(CNC(C(=O)Nc1ccc(N2CCN(C)C(=O)C2)cn1)c1ccccc1)c1ccc(C#N)cc1 (single isomer, unassigned) [101 Isomer 4]"
19,30.8 nM,"CCN1CCN(c2ccc(NC(=O)C(NC[C@@H](C)c3ccc(C#N)cc3)c3ccccc3)nc2)CC1=O (single isomer, unassigned) [102 Isomer 1]"
20,1550 nM,"CCN1CCN(c2ccc(NC(=O)C(NC[C@@H](C)c3ccc(C#N)cc3)c3ccccc3)nc2)CC1=O (single isomer, unassigned) [102 Isomer 2]"

row,IC50,Compound
1,> 2000 nM,"CC(CNC(C(=O)Nc1ccc(N2CCN(CC(F)(F)F)C(=O)C2)cn1)c1ccccc1)c1ccc(C#N)cc1 (single isomer, unassigned) [103 Isomer 1]"
2,14.3 nM,"CC(CNC(C(=O)Nc1ccc(N2CCN(CC(F)(F)F)C(=O)C2)cn1)c1ccccc1)c1ccc(C#N)cc1 (single isomer, unassigned) [103 Isomer 2]"
3,1000 nM,"CC(CNC(C(=O)Nc1ccc(N2CCN(CC(F)(F)F)C(=O)C2)cn1)c1ccccc1)c1ccc(C#N)cc1 (single isomer, unassigned) [103 Isomer 3]"
4,> 2000 nM,"CC(CNC(C(=O)Nc1ccc(N2CCN(CC(F)(F)F)C(=O)C2)cn1)c1ccccc1)c1ccc(C#N)cc1 (single isomer, unassigned) [103 Isomer 4]"
5,1370 nM,"CC(CNC(C(=O)Nc1ccc(-c2cn[nH]c2)cn1)c1ccccc1)c1ccc(C#N)cc1 (single isomer, unassigned) [104 Isomer 1]"
6,415 nM,"CC(CNC(C(=O)Nc1ccc(-c2cn[nH]c2)cn1)c1ccccc1)c1ccc(C#N)cc1 (single isomer, unassigned) [104 Isomer 3]"
7,1020 nM,"CC(CNC(C(=O)Nc1ccc(-c2cn[nH]c2)cn1)c1ccccc1)c1ccc(C#N)cc1 (single isomer, unassigned) [104 Isomer 4]"
8,> 2000 nM,"C[C@H](CNC(C(=O)Nc1ccc(-c2ccn(C)c(=O)c2)cn1)c1ccccc1)c1ccc(C#N)cc1 (single isomer, unassigned) [105 Isomer 1]"
9,> 2000 nM,"C[C@H](CNC(C(=O)Nc1ccc(-c2cc(=O)n(C)cn2)cn1)c1ccccc1)c1ccc(C#N)cc1 (single isomer, unassigned) [106 Isomer 1]"
10,25.5 nM,"C[C@H](CNC(C(=O)Nc1ccc(-c2cc(=O)n(C)cn2)cn1)c1ccccc1)c1ccc(C#N)cc1 (single isomer, unassigned) [106 Isomer 2]"
11,> 2000 nM,"Cc1nc(-c2ccc(NC(=O)C(NC[C@@H](C)c3ccc(C#N)cc3)c3ccccc3)nc2)no1 (single isomer, unassigned) [107 Isomer 1]"
12,72.3 nM,"Cc1nc(-c2ccc(NC(=O)C(NC[C@@H](C)c3ccc(C#N)cc3)c3ccccc3)nc2)no1 (single isomer, unassigned) [107 Isomer 2]"
13,> 2000 nM,"CC(CNC(C(=O)Nc1ccc(N2CCN(C)S2(=O)=O)cn1)c1ccccc1)c1ccc(C#N)cc1 (single isomer, unassigned) [108 Isomer 1]"
14,23.7 nM,"CC(CNC(C(=O)Nc1ccc(N2CCN(C)S2(=O)=O)cn1)c1ccccc1)c1ccc(C#N)cc1 (single isomer, unassigned) [108 Isomer 2]"
15,> 2000 nM,"CC(CNC(C(=O)Nc1ccc(N2CCN(C)S2(=O)=O)cn1)c1ccccc1)c1ccc(C#N)cc1 (single isomer, unassigned) [108 Isomer 3]"
16,> 2000 nM,"CC(CNC(C(=O)Nc1ccc(N2CCN(C)S2(=O)=O)cn1)c1ccccc1)c1ccc(C#N)cc1 (single isomer, unassigned) [108 Isomer 4]"
17,> 2000 nM,"C[C@H](CNC(C(=O)Nc1ccc(C2CC(=O)N(C)C2)cn1)c1ccccc1)c1ccc(C#N)cc1 (single isomer, unassigned) [109 Isomer 1]"
18,> 2000 nM,"C[C@H](CNC(C(=O)Nc1ccc(C2CC(=O)N(C)C2)cn1)c1ccccc1)c1ccc(C#N)cc1 (single isomer, unassigned) [109 Isomer 2]"
19,61.3 nM,"C[C@H](CNC(C(=O)Nc1ccc(C2CC(=O)N(C)C2)cn1)c1ccccc1)c1ccc(C#N)cc1 (single isomer, unassigned) [109 Isomer 3]"
20,528 nM,"Cc1c(-c2ccc(NC(=O)C(NC[C@@H](C)c3ccc(C#N)cc3)c3ccccc3)nc2)cnn1C (single isomer, unassigned) [114 Isomer 1]"
